Reference: US20010041177A1, “Methods for detecting inflammation and inflammatory conditions” (priority 2000, published 2001)

How the values were obtained:
[1] = tested on: monocyte CD163 expression; experiment: CD163 expression on monocytes of PBMCs cultured with mediators, staining and flow cytometric analysis; assay type: cell-based, human; settings: for increase of monocyte CD163 expression: PBMCs treated 24 hours, DEX 200 nM; for effect of cytokine alone on monocyte CD163 expression: at the concentrations tested
Protocol: To assess whether different cytokines could influence CD163 expression, freshly isolated PBMCs were cultured for 24 hours in the presence of various cytokines, 200 nM DEX (as a positive control for CD163 upregulation), or control media. The cells were then subjected to staining and flow cytometric analysis.
For cytokine treatment studies, isolated PBMCs were suspended in hepes buffered RPMI 1640/0.05% gentamicin/10% FBS at a concentration of 2.0×10^6 to 2.5×10^6 cells/ml and cultured in 96 well plates at 37° C. and 5% CO2 in the presence of various mediators (Table 1). Mononuclear cells were stained for flow cytometric analysis after 24 hours in culture unless otherwise indicated. This enhanced cell recovery because monocytes, which initially adhere to plastic vessels, transiently detach from culture wells at 24-48 hours.
All staining procedures were performed at 4 C. Briefly, cultured PBMCs were incubated with normal human IgG (6 mg/ml) to block Fc receptor-specific binding of mAbs and 30 μg/ml of the isotype control mAb P3 or a saturating amount of mAb MAC2-48 (20 μg/ml) for one hour. Cells were then washed and stained for one hour with 17.5 μg/ml FITC labeled goat F(ab=)2 anti-mouse Ig. The cells were again washed and fixed with 1% methanol free formalin.
Cell fluorescence of monocytes gated using forward and side scatter was analyzed using a Becton Dickenson FACScan (Franklin Lakes, N.J.). Mean fluorescence intensity (MFI) was calculated by subtracting the MFI of the P3 stained mononuclear cells from the MFI of the corresponding Mac2-48 stained cells.

[2] = tested on: CD163 expression on monocytes; experiment: Monocytes cultured with LPS, DEX or IL-10, surface CD163 by immunofluorescence; assay type: cell-based, human; settings: monocytes cultured with the agent alone
Protocol: In addition to testing the effects of cytokines in combination with glucocorticoids on levels of CD163, studies were performed to examine the effects of glucocorticoids in combination with lipopolysaccharide (LPS). […] However, when monocytes were cultured for 48 hours with DEX combined with LPS, their was a synergistic increase in CD163 expression, where the effect of DEX alone was increased by more than 2-fold when LPS treatment was added.

CD163 mRNA = experiment: Northern blots of CD163 mRNA in treated monocytes; assay type: cell-based, human; settings: monocytes treated 8 hours; 5 ng/ml IL-10 or 10^-8 M FP
Protocol: Monocytes were treated for 8 hours with either IL-10, the glucocorticoid FP or control media.
Human monocytes were isolated and cultured overnight as described for western blots. Monocytes were then stimulated for 8 hours with 5 ng/ml IL-10 (R&D Systems) or 10^-8 M FP. Total RNA was isolated from IL-10 stimulated, glucocorticoid stimulated and control monocytes as described by Dreier, et al. (Dreier, J. et al. 1998. DNA Cell Biol. 17:321-323). 10 μg of total RNA per sample were electrophoretically separated in a 1% agarose, 2% formaldehyde gel and transferred onto a Hybond N^+nylon membrane (Amersham Inc., Arlington Heights, Ill.) in 20x saline-sodium citrate (SSC) using an LKB 2016 VacuGene blotting apparatus. Antisense RNA probes for northern hybridization were generated from linearized DNA templates using a digoxigenin RNA labeling kit (Boehringer Mannheim, Mannheim, Germany) and T7 RNA polymerase (New England Biolabs, Schwalbach, Germany) as described by the manufacturer. Prehybridization was performed at 68° C. for 1 hr in a high SDS hybridization buffer (7% SDS, 5x SSC, 50% formamide, 50 mM sodium phosphate, 2% casein, 0.1% N-lauroylsarcosine, pH 7.0). Subsequently the heat-denatured probes (10 minutes at 95° C.) were added to the prehybridization solution (100 ng/ml) and hybridized at 68° C. for 16 hours. […]

monocyte surface CD163 [3] = experiment: Shedding of monocyte surface CD163 in vitro; assay type: cell-based, human; settings: cells pretreated with glucocorticoids plus LPS
Protocol: Therefore, like PMA, LPS is capable of inducing CD163 shedding. LPS-induced shedding occurred even with monocytes that had been cultured for 48 hours in DEX and thus had 5- to 10-fold higher levels of surface CD163 than freshly isolated monocytes. […] This LPS-conferred resistance to subsequent LPS-induced shedding of CD163 is similar to reported endotoxin pre-conditioning for resistance to subsequent inflammatory insults.

monocyte surface CD163 [4] = settings: Droste et al. 1999; blocked by protease inhibitors; cited from earlier work
[5] = tested on: CD163 expression on monocytes; settings: purified monocytes, 2 days; cited from earlier work

C[C@@H]1C[C@H]2[C@@H]3CCC4=CC(=O)C=C[C@]4(C)[C@@]3(F)[C@@H](O)C[C@]2(C)[C@@]1(O)C(=O)CO [DEX, reference compound]
increase of monocyte CD163 expression ([1]; p<0.01): ~7 fold
surface CD163 on monocytes, single agent [2]: increased expression of CD163

CCC(=O)O[C@]1(C(=O)SCF)[C@H](C)C[C@H]2[C@@H]3C[C@H](F)C4=CC(=O)C=C[C@]4(C)[C@@]3(F)[C@@H](O)C[C@@]21C [FP, reference compound]
CD163 mRNA levels (CD163 mRNA): increased from undetectable to strong bands

CCCCCCCCCCCCCC(=O)O[C@@H]1[C@@H](C)[C@@]2(O)[C@@H](C=C(CO)C[C@]3(O)C(=O)C(C)=C[C@@H]23)[C@@H]2C(C)(C)[C@]12OC(C)=O [PMA]
shedding of surface CD163 on subsequent treatment (monocyte surface CD163 [3]): remained sensitive to PMA-induced shedding
shedding of surface CD163 from monocytes in culture (monocyte surface CD163 [4]): induce rapid shedding of surface CD163

GM-CSF: granulocyte-macrophage colony stimulating factor
effect of cytokine plus DEX on CD163 expression over DEX treatment alone ([1]; PBMCs 24 hours): does not enhance CD163 expression over DEX treatment alone
effect of cytokine alone on CD163 expression [5]: neither GM-CSF nor IL-4 alone had any effect
effect of cytokine plus DEX on CD163 expression [5]: synergistic effect

IL-13: interleukin-13, a cytokine
effect of cytokine alone on monocyte CD163 expression ([1]; PBMCs 24 hours): did not upregulate CD163 expression

B1: IL-10: Interleukin-10 (originally known as cytokine synthesis inhibitory factor), a cytokine (protein, UniProt P22301 19-178, looked up)
Interleukin-10: SPGQGTQSENSCTHFPGNLPNMLRDLRDAFSRVKTFFQMKDQLDNLLLKESLLEDFKGYLGCQALSEMIQFYLEEVMPQAENQDPDIKAHVNSLGENLKTLRLRLRRCHRFLPCENKSKAVEQVKNAFNKLQEKGIYKAMSEFDIFINYIEAYMTMKIRN
CD163 mRNA levels (CD163 mRNA): increased from undetectable to strong bands
increase of CD163 expression compared to control ([1]; PBMCs 24 hours, 10 and 100 ng/ml IL-10, p<0.01): approximately 3.5 fold
increase of monocyte CD163 expression ([1]; p<0.01): approximately 4 fold
surface CD163 on monocytes, single agent [2]: increased expression of CD163

B2: IL-4: interleukin-4, a cytokine (protein, UniProt P05112 25-153, looked up)
Interleukin-4: HKCDITLQEIIKTLNSLTEQKTLCTELTVTDIFAASKNTTEKETFCRAATVLRQFYSHHEKDTRCLGATAQQFHRHKQLIRFLKRLDRNLWGLAGLNSCPVKEANQSTLENFLERLKTIMREKYSKCSS
effect of cytokine plus DEX on CD163 expression over DEX treatment alone ([1]; PBMCs 24 hours): does not enhance CD163 expression over DEX treatment alone
effect of cytokine alone on monocyte CD163 expression ([1]; PBMCs 24 hours): did not upregulate CD163 expression
effect of cytokine alone on CD163 expression [5]: neither GM-CSF nor IL-4 alone had any effect
effect of cytokine plus DEX on CD163 expression [5]: synergistic effect
